Results on 19 compounds are retold here after patent US20060257543A1, “Molecules comprising linked organic moieties as flavor modifiers for comestible compositions” (priority 2005, published 2006).

Assay [1] addresses T1, hT1R1/hT1R3 umami receptor expressed in an HEK293 cell line (Homo sapiens, UniProt Q7RTX0+Q7RTX1).
T1 construct: expressed in transfected cells; host or cells: HEK293 derivative, clone I-17, expression induced with mifepristone
T1 sequence (Q7RTX1 21-841): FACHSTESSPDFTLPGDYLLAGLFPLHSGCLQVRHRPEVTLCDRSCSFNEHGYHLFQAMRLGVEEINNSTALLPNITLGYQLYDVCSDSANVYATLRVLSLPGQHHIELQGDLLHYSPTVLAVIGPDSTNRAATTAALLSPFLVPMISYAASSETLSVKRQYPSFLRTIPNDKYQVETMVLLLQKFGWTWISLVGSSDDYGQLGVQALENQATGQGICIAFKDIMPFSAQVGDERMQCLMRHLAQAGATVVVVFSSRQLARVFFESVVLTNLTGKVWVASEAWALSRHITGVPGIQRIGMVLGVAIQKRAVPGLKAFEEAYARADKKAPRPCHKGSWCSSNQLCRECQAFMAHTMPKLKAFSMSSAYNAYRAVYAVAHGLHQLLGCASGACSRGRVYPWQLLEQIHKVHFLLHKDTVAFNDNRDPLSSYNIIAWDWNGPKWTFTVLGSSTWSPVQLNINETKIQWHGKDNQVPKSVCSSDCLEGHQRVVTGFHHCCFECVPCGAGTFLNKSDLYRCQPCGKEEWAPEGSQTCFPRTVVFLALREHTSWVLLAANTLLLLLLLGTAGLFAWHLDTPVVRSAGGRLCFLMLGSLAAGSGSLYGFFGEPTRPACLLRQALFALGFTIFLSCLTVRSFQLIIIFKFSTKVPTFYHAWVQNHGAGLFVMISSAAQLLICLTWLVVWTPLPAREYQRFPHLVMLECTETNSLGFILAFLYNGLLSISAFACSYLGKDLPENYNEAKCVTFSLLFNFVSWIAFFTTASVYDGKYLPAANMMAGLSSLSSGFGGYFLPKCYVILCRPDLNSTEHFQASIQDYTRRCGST
T1 sequence (Q7RTX0 21-852): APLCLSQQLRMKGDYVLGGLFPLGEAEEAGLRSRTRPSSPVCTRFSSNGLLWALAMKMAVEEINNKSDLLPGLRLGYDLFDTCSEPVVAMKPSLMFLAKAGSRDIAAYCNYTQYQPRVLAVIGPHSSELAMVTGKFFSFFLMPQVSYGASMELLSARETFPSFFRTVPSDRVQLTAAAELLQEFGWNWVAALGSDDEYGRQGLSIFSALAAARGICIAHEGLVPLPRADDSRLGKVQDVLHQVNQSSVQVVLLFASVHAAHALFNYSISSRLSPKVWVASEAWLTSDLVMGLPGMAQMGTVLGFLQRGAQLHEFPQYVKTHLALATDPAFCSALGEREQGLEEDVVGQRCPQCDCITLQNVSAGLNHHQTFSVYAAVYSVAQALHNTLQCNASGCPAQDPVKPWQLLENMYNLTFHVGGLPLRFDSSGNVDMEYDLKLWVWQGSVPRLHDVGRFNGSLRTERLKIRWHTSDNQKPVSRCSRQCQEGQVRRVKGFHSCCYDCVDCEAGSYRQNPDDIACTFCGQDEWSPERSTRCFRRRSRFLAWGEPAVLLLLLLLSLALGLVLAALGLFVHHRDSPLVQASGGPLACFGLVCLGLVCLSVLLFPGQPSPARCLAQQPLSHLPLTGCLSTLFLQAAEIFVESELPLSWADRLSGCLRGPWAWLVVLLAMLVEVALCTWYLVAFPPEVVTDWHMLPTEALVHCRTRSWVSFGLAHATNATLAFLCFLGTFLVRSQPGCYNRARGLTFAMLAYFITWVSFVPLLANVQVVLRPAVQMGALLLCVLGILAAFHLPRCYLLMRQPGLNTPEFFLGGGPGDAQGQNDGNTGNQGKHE
In words: Umami taste enhancement activity assay (EC50 ratio vs. MSG). The class given is cell-based. An excerpt: In umami taste enhancement activity assay experiments, which produce an “EC50 ratio” measurement of how effectively the tastant compounds of the invention enhance the savory flavorant (typically MSG) already in a test solution. A series of measurements of the dose response is run in solutions comprising MSG alone, then a second dose response is run with MSG in combination with predetermined amounts of a candidate compound of Formula (I) at the same time.
In this assay, increasing concentrations of monosodium glutamate (ranging from 12 μM to 81 mM) were presented, in duplicates, in the presence or absence of a fixed concentration of the test compound. Typical compound concentrations tested were 30 μM, 10 μM, 3 μM, 1 μM, 0.3 μM, 0.1 μM and 0.03 μM. The relative efficacy of compounds of Formula (I) at enhancing the receptor was determined by calculating the magnitude of a shift in the EC50 for monosodium glutamate. Enhancement was defined as a ratio (EC50R) corresponding to the EC50 of monosodium glutamate, determined in the absence of the test compound, divided by the EC50 of monosodium glutamate, determined in the presence of the test compound.
Stated alternatively, “EC50 ratio” as compared to MSG is calculated based on the following definitions:
EC50 Ratio vs. MSG=EC50 (MSG)/EC50 (MSG+[Compound]) • wherein “[compound]” refers to the concentration of the compound of Formula (I) used to elicit (or enhance or potentiate) the MSG dose response.
It should be noted that the EC50 ratio measured can depend somewhat on the concentration of the compound itself. Preferred savory enhancers would have a high EC50 Ratio vs. MSG at a low concentration of the compound used. Preferably the EC50 ratio experiments to measure umami enhancement are run at a concentration of a compound of Formula (I) between about 10 μM to about 0.1 μM, or preferably at […] or 3.0 μM.

For assay [2], the target named is T1, hT1R1/hT1R3 umami receptor expressed in an HEK293 cell line. Briefly: In vitro hT1R1/hT1R3 umami taste receptor activation assay (FLIPR, dose response). It is filed as cell-based. The text has this:
In order to identify new savory flavoring agents and enhancers, including compounds with savory agonist and enhancer activities (dual activity), the tastant compounds of Formula (I) were screened in primary assays and secondary assays including compound dose response and enhancement assay. In a primary assay for potential ability to modulate umami taste, tastant compounds of Formula (I) that can be either savory flavoring agents in their own right or flavor enhancers of MSG are identified and scores of their activities are given as percentage of the maximum MSG intensity (%). In compound dose response, an EC50 is calculated to reflect the potency of the compound as a savory agonist or enhancer.
An HEK293 cell line derivative (see e.g., Chandrashekar, et al., Cell (2000) 100: 703-711) which stably expresses Gα15 and hT1R1/hT1R3 under an inducible promoter (see WO 03/001876 A2) was used to identify compounds with savory tasting properties.
Compounds disclosed in this application were initially selected based on their activity on the hT1R1/hT1R3-HEK293-Gα15 cell line. Activity was determined using an automated fluorometric imaging assay on a FLIPR instrument (Fluorometric Intensity Plate Reader, Molecular Devices, Sunnyvale, Calif.) (designated FLIPR assay). Cells from one clone (designated clone I-17) were seeded into 384-well plates (at approximately 48,000 cells per well) in a medium containing Dulbecco's modified Eagle's medium (DMEM) supplemented with GlutaMAX (Invitrogen, Carlsbad, Calif.), 10% dialyzed fetal bovine serum (Invitrogen, Carlsbad, Calif.), 100 Units/ml Penicillin G, 100 μg/ml Streptomycin (Invitrogen, Carlsbad, Calif.) and 60 pM mifepristone (to induce expression of hT1R1/hT1R3, (see WO 03/001876 A2). I-17 cells were grown for 48 hours at 37° C. I-17 cells were then loaded with the calcium dye Fluo-3AM (Molecular Probes, Eugene, Oreg.), 4 μM in a phosphate buffered saline (D-PBS) (Invitrogen, Carlsbad, Calif.), for 1.5 hours at room temperature. After replacement with 25 μl D-PBS, stimulation was performed in the FLIPR instrument and at room temperature by the addition of 25 μl D-PBS supplemented with different stimuli at concentrations corresponding to twice the desired final level. Receptor activity was quantified by determining the maximal fluorescence increases (using a 480 nm excitation and 535 nm emission) after normalization to basal fluorescence intensity measured before stimulation.
For dose-responses analysis, stimuli were presented in duplicates at 10 different concentrations ranging from 1.5 nM to 30 μM. Activities were normalized to the response obtained with 60 mM monosodium glutamate, a concentration that elicits maximum receptor response. EC50s (concentration of compound that causes 50% activation of receptor) were determined using a non-linear regression algorithm, where the Hill slope, bottom asymptotes and top asymptotes were allow to vary. Identical results were obtained when analyzing the dose-response data using commercially available software for non-linear regression analysis such as GraphPad PRISM (San Diego, Calif.).

Like-named read-outs stand apart in the source and are kept apart here.

Turning to `CCCC(CCC)NC(=S)c1ccc2c(c1)OCO2` [Example 1, N-(heptan-4-yl)benzo[d][1,3]dioxole-5-carbothioamide], the “EC50 ratio (enhanced the effectiveness of monosodium glutamate)” value in assay [1] (compound present at 0.03 μM) came to 3. Further, the EC50 in assay [2] (read-out: EC50 for activation of a hT1R1/hT1R3 umami receptor expressed in an HEK293 cell line) came out at 8.8 µM. With `O=C(OCCCc1nc2ccccc2[nH]1)c1cccs1` [Example A6], the “EC50 ratio (vs. MSG)” value in assay [1] (compound @ 3 μM) came out at 4.4. For the same compound, in assay [2] (read-out: Umami EC50), the EC50 came to 3.5 µM. For `O=C(OCCCn1ncc2ccccc2c1=O)c1cccs1` [Example A7] the same measures were 3.8 and 6 µM. On to `COc1ccc(CNc2ccccn2)cc1` [Example A8], for which the “EC50 ratio (vs. MSG)” value in assay [1] (compound @ 1 μM) turned out to be 3.1. The EC50 in assay [2] (read-out: Umami EC50) was found to be 11.8 µM.

For `COc1ccc(CNc2nc3ccccn3n2)cc1` [Example A9], the “EC50 ratio (vs. MSG)” value in assay [1] (compound @ 3 μM) was found to be 3.6. Besides, in assay [2] (read-out: Umami EC50), the EC50 is 11.8 µM.

As to `COc1ccc(C(=O)CC(SCO)c2ccc(Cl)cc2)cc1` (stereo not shown) [Example A10], the EC50 in assay [2] (read-out: Umami EC50) is 6.05 µM. Take `O=C(SCc1ccccn1)c1ccccc1` [Example A11]: in assay [1] (compound @ 3 μM), the “EC50 ratio (vs. MSG)” value is reported as 6.5. The EC50 in assay [2] (read-out: Umami EC50) worked out at 6.34 µM. `c1ccc2oc(SCc3cn4ccccc4n3)nc2c1` [Example A12]: in assay [1] (compound @ 1 μM), the “EC50 ratio (vs. MSG)” value was 2.81. The EC50 in assay [2] (read-out: Umami EC50) stood at 5.14 µM.

With `c1ccc2sc(SCc3cn4ccsc4n3)nc2c1` [Example A13], in assay [1] (compound @ 3 μM), the “EC50 ratio (vs. MSG)” value is listed as 3.6. For the same compound, the EC50 in assay [2] (read-out: Umami EC50) amounted to 5.19 µM. For `CCOC(=O)COc1ccc(S(=O)(=O)Nc2ccc3c(c2)OCO3)cc1` [Example A14], in assay [2] (read-out: Umami EC50), the EC50 was found to be 14.4 µM.

Take `CSc1ccccc1NC(=S)NC1CCCCC1C` (stereo not shown) [Example A15]: the EC50 in assay [2] (read-out: Umami EC50) was 3 µM.

As for `CC(C)(C)c1ccc(NC(=S)NCc2ccccn2)cc1` [Example A16], the EC50 in assay [2] (read-out: Umami EC50) stood at 3.71 µM. Turning to `S=C(NCCc1ccccn1)Nc1cccc(Cl)c1` [Example A17], the “EC50 ratio (vs. MSG)” value in assay [1] (compound @ 1 μM) is on record as 4.7. For the same compound, the EC50 in assay [2] (read-out: Umami EC50) came out at 4.53 µM.

As to `CCCCC(C)NC(=S)NC1CCCc2ccccc21` (stereo not shown) [Example A18], the EC50 in assay [2] (read-out: Umami EC50) stood at 7.88 µM. The same measure, in the same setting: in the case of `CC1CCCCC1NC(=S)Nc1ccc2c(c1)OCO2` (stereo not shown) [Example A19] it was 13.4 µM; in that of `Cc1cc(CNC(=S)Nc2ccc(OC(C)C)cc2)no1` [Example A20], 11 µM; in that of `CC(C)Oc1ccc(NC(=S)NCc2ncc[nH]2)cc1` [Example A21], 14.5 µM. With `O=C(OCc1ccccn1)c1ccc(COc2cccc3ccccc23)cc1` [Example A22], the EC50 in assay [2] (read-out: Umami EC50) is 3.87 µM.

In the case of `O=S(=O)(NCc1cc(F)cc2c1OCOC2)c1ccc(-c2ccccn2)s1` [Example A23], the EC50 in assay [2] (read-out: Umami EC50) turned out to be 10.3 µM.
